Assay [1] addresses T1, 14-3-3ζ/Tau pS2 peptide (Homo sapiens, UniProt P63104).
T1 construct: made in house; host or cells: NiCo21 (DE3) E. coli
T1 sequence (P63104 1-245): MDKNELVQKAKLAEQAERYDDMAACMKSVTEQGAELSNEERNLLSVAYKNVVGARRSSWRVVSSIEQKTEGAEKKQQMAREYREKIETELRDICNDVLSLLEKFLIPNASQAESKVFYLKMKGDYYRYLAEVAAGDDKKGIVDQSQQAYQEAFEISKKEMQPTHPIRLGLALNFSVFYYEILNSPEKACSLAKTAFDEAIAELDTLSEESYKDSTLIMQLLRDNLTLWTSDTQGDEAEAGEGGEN
Nature of the assay: Differential scanning fluorimetry of 14-3-3 with Tau pS2 peptide and compounds. The settings on record: compound 30-fold compared to 14-3-3ζ (75 μM), Tau pS2 peptide 25 μM, 14-3-3 2.5 μM; read-out: additional increase in melting temperature relative to the binary 14-3-3ζ/Tau pS2 peptide system. Format: binding. The procedure: (§1) Fig. 3 a Dose–response fluorescence anisotropy data of compound titrations to 10 nM FITC-labeled Tau pS2 peptide and 100 nM 14-3-3ζ. […] Mean of three individually performed experiments (see ESI ^† Fig. S8 for the protein titrations). e Differential scanning fluorimetry assay results. Identified melting temperatures (Tm) of 14-3-3γ alone (2.5 μM) and in the presence of Tau pS2 peptide (25 μM) and additionally with selected compounds (75 μM).
As an orthogonal method to profile the PPI stabilizing activity of selected compounds, differential scanning fluorimetry (DSF) assays were performed (Fig. 3e). […] Upon addition of compounds (1, 11, 13–14, and 20–22) to this PPI complex (30-fold compared to 14-3-3ζ), an additional increase in melting temperature between 0.9 °C and 2.1 °C was observed relative to the binary 14-3-3ζ/Tau pS2 peptide system. These observations are in agreement with the stabilization observed in the FA data and strongly testify to the molecular glue effect of our compound, by enhancing the stability of the PPI complex. […]
chromatography (HisTrap high performance cartridges, Cytiva). Typically two 5 mL columns were used for a 2 L culture in which the lysate was loaded on the column, washed with 10 CV wash buffer (50 mM Hepes, pH 8.0, 300 mM NaCl, 25 mM imidazole, 2 mM βME), and eluted with several fractions (2-4 CV) of elution buffer (50 mM Hepes, pH 8.0, 300 mM NaCl, 250 mM imidazole, 2 mM βME). Fractions containing the 14-3-3 protein were combined and dialyzed into 25 mM HEPES pH 8.0, 200 mM NaCl, 10 mM MgCl2, 2 mM βME, followed by dialysis into 25 mM HEPES, 100 mM NaCl, 10 mM MgCl2, 500 μM TCEP (adjusted to pH 8.0). Dialyzed protein was concentrated to ∼40 mg/mL, analyzed by Q -Tof LC/MS, and aliquots were flash -frozen for storage at −80 °C. For 14 -3-3σ∆c, 1 mg TEV per 100 mg purified protein was added to the dialysis to remove the purification tag. The cleaved sample was then again loaded on a 10 mL Ni-NTA column to separate the cleaved product from the expression tag and residual uncleaved protein. The flowthrough was loade d on a Superdex 75 pg 16/60 size exclusion column (GE Life Sciences) using 25 mM HEPES, 100 mM NaCl, 10 mM MgCl2, 500 μM TCEP (adjusted to pH = 8.0) as running buffer. Fractions containing the 14 -3-3 protein were pooled and concentrated to ∼60 mg/mL, analyzed Q -Tof LC/MS, and aliquots were flash -frozen for storage at −80°C. […]
The peptide screen was performed in a similar way as the 14-3-3ζ titration in the precence of compound.
14-3-3ζ was titrated in a 2-fold dilution series (starting at 400 µM 14-3-3ζ) to 100 nM of fluorescein-labeled peptides and 250 µM compound 18 (1% DMSO) in FA buffer (10 mM HEPES pH 7.4, 150 mM […]
Data shown is the average of a scientific triplicate.
Differential Scanning Fluorimetry (DSF)
DSF was performed using 40 µl samples containing 2.5 µM 14 -3-3ζ, 25 µM Tau peptide (Tau pS2, Tau pS214 or Tau pS324), […] (1% DMSO) and 5x ProteoOrange (Lumiprobe, 5000x stock in DMSO) in 10 mM HEPES, 150 mM NaCl, 50 µM TCEP (pH 7.4). The samples were heated from 35 °C to 79°C at a rate of 0.3 °C per 15 s in a C FX96 Touch Real-Time PCR Detection System (Bio -Rad). Fluorescence intensity was determined using excitation ( λem=525/20 nm) and emission ( λex=570/20 nm) filters.
Based on these melting curves, the negative derivative melting curve is obtained from which the melting temperature Tm was determined. All described melting temperatures are based on two or three independent experiments, from which the average and standard deviations were determined.
X-ray crystallography data collection and refinement
For x-ray crystallography, a C-terminally truncated 14-3-3σ protein (truncated after T231 to reduce flexibility) was used. This 14-3-3σ∆C was preincubated with Tau pS214 in complexation buffer (20 mM HEPES pH 7.5, 2 mM MgCl2 and 100 μM TCEP) in a 1:1.5 molar stoichiometry (protein:peptide) at a final protein concentration of 10.0 mg/mL. […]
(DSF heats the sample and reads unfolding from a dye or from intrinsic fluorescence.)

Assay [2] concerns the target 14-3-3γ (Homo sapiens, UniProt P61981). Nature of the assay: 19F-NMR spectroscopy of fluorinated analogs at varying 14-3-3 concentrations. Format: binding. The settings on record: 125 μM stabilizer, 14-3-3 0-250 μM, no Tau peptide. The procedure:
as §1
This stepwise mechanism has been described in detail for related benzaldehyde stabilizers and the 14-3-3/Pin1 interaction.[34] However, the imidazolyl-benzaldehydes might also show an intrinsic binding affinity for 14-3-3. To elucidate the underlying processes, we performed ^19F-NMR spectroscopy studies (Fig. 3f) with the fluorinated analogs 20 and 21. At a constant stabilizer concentration (125 μM), the 14-3-3 concentration was varied from 0 μM to 250 μM.

The values that follow come from article PMC11892739, “Site-specific molecular glues for the 14-3-3/Tau pS214 protein–protein interaction via reversible covalent imine tethering” (RSC Medicinal Chemistry, 2025).

“Also recorded” adds a separate entry of the source.

Chain of 14-3-3γ (P61981 whole entry): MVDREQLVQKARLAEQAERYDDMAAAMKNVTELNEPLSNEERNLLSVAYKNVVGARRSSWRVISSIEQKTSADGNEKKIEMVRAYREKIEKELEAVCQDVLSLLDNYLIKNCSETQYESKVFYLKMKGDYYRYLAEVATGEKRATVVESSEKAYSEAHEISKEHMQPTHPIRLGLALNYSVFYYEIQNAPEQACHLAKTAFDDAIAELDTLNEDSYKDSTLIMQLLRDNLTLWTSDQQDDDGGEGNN

With `O=Cc1ccc(-n2ccnc2-c2ccc(OC(F)(F)F)cc2)cc1Br` [Compound 21], the ΔTm in assay [1] fell in the range of 0.9 to 2.1 °C. The “binding to 14-3-3 by 19F-NMR (in words)” value in assay [2] is “ligand binding to 14-3-3γ; also recorded: formation of the binary 14-3-3/stabilizer complex”.

On to `O=Cc1ccc(-n2ccnc2-c2ccc(Cl)cc2)cc1Br` [Compound 14], for which the ΔTm in assay [1] fell in the range of 0.9 to 2.1 °C.

On to `O=Cc1ccc(-n2ccnc2-c2ccc(F)cc2)cc1Br` [Compound 13], for which the ΔTm in assay [1] fell in the range of 0.9 to 2.1 °C.

For the compound `Cc1ccc(-c2nccn2-c2ccc(C=O)c(Br)c2)cc1` [Compound 11], the ΔTm in assay [1] lay within 0.9 to 2.1 °C.

In the case of `O=Cc1ccc(-n2ccnc2-c2ccccc2)cc1Br` [Compound 1], in assay [1], the ΔTm lay within 0.9 to 2.1 °C.

For `O=Cc1ccc(-n2ccnc2-c2ccc(C(F)(F)F)cc2)cc1Br` [Compound 20], the ΔTm in assay [1] was 0.9 to 2.1 °C. Moreover, in assay [2], the “binding to 14-3-3 by 19F-NMR (in words)” value is on record as “formation of the binary 14-3-3/stabilizer complex”.

On to `N#Cc1ccc(-c2nccn2-c2ccc(C=O)c(Br)c2)cc1` [Compound 22], for which, in assay [1], the ΔTm was in the range of 0.9 to 2.1 °C.
